Test results reported in US20210038607A1, “OXADIAZOLYLTHIOPHENE DERIVATIVES USEFUL AS HISTONE DEACETYLASE INHIBITORS” (Karus Therapeutics Limited, priority 2018, published 2021).

Key:
[1] = target: T1, Human HDAC5 (Homo sapiens, UniProt Q9UQL6); assay: HDAC5 biochemical assay, class IIa-specific substrate; conditions: read-out: HDAC Isoform IC50 (nM) 5
T1 construct: full length with C-terminal His tag, MW=51.1 kDa; His (C); host or cells: baculovirus expression system
Outline: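 Full-length C-terminal His-tagged HDAC5 from baculovirus (0.05 ng/ul) incubated 30 min at room temperature with 50 μM Boc-Lys(trifluoroacetyl)-AMC and compound, Tris pH 8.0 buffer with BSA, 1% DMSO. Developer then releases AMC; fluorescence 360/460 nm.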

[2] = target: T2, Human HDAC9 (Homo sapiens, UniProt Q9UKV0); assay: HDAC9 biochemical assay, class IIa-specific substrate; conditions: read-out: HDAC Isoform IC50 (nM) 9
T2 construct: amino acids 604-1066 with C-terminal His tag; His (C); host or cells: baculovirus expression system
Outline: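 HDAC9 residues 604-1066 (C-terminal His tag, baculovirus-expressed) at 0.06 ng/ul with 50 μM class IIa substrate Boc-Lys(trifluoroacetyl)-AMC in Tris-HCl pH 8.0 buffer with BSA and 1% DMSO. 30 min at room temperature, then developer added; fluorescence read at 360/460 nm Ex/Em.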

[3] = target: T3, Human HDAC7 (Homo sapiens, UniProt Q8WUI4); assay: HDAC7 biochemical assay, class IIa-specific substrate; conditions: read-out: HDAC Isoform IC50 (nM) 7
T3 construct: (a.a. 518-end) with N-terminal GST tag; GST (N); host or cells: baculovirus expression system
T3 sequence (Q8WUI4 518-952 limits assumed): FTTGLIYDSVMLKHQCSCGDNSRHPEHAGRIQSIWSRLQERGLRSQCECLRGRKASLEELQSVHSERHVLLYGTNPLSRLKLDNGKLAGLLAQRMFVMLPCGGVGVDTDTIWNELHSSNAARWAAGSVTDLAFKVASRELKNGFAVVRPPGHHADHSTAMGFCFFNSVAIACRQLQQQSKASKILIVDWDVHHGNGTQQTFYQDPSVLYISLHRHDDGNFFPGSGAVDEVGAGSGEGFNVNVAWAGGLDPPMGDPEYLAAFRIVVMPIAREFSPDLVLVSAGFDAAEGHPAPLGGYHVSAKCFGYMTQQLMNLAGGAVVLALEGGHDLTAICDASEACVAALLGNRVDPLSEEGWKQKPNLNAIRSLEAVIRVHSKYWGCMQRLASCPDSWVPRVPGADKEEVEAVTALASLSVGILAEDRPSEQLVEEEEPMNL
Outline: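 GST-tagged HDAC7 (a.a. 518-end, baculovirus-expressed) at 0.001 ng/ul with 50 μM Boc-Lys(trifluoroacetyl)-AMC substrate, 30 min at room temperature in pH 8.0 Tris buffer with BSA, 1% DMSO final. Developer then releases AMC; fluorescence read at 360/460 nm.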

[4] = target: T4, Human HDAC4 (Homo sapiens, UniProt P56524); assay: HDAC4 biochemical assay, class IIa-specific substrate; conditions: read-out: HDAC Isoform IC50 (nM) 4
T4 construct: amino acids 627-1085 with N-terminal GST tag; GST (N); host or cells: baculovirus expression system
Outline: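 GST-tagged human HDAC4 (aa 627-1085, baculovirus) at 0.004 ng/ul was incubated 30 min at room temperature with 50 μM class IIa-specific substrate BOC-Lys(trifluoroacetyl)-AMC in Tris-HCl pH 8.0 buffer with BSA, 1% DMSO. Developer then released AMC, read at 360/460 nm.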

[5] = target: T5, Recombinant human HDAC6 (Homo sapiens, UniProt Q9UBN7); assay: HDAC6 biochemical assay, AMC-labeled peptide substrate; conditions: HDAC6; read-out: HDAC Isoform IC50 (nM) 6
T5 construct: full length, MW=159 kDa; GST (N); host or cells: Sf9 insect cells (baculovirus)
T5 sequence (Q9UBN7 1-1215): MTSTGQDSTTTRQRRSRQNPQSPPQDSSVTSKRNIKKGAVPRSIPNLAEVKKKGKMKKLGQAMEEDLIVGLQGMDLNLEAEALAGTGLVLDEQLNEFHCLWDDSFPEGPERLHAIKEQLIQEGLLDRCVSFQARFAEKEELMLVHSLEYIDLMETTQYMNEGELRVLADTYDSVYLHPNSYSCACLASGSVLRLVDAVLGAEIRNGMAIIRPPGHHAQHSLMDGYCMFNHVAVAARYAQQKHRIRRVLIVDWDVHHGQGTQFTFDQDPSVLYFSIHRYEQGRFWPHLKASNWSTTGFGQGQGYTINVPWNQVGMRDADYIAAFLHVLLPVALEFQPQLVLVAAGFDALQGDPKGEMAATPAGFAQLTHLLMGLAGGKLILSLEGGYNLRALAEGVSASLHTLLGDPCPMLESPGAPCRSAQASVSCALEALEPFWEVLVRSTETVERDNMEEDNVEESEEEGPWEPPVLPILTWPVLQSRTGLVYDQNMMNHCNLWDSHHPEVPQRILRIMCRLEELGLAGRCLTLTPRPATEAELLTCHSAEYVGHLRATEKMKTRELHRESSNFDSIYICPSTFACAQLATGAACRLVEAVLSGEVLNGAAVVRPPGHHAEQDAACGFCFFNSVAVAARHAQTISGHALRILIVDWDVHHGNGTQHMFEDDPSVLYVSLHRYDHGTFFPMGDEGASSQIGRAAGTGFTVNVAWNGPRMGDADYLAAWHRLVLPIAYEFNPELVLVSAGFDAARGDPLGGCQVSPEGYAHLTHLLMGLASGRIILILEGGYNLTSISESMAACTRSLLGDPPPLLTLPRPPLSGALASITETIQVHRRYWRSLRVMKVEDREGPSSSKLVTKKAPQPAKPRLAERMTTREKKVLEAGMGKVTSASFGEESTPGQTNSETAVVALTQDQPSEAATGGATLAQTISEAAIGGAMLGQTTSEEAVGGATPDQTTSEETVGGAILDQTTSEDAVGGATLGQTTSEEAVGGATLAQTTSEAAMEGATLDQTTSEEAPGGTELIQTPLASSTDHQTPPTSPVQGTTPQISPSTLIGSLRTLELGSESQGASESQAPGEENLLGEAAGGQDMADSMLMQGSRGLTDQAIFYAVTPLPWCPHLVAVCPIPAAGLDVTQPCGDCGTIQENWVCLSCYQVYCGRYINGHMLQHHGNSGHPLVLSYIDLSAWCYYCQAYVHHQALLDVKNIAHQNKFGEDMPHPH
Outline: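 Two-step fluorogenic read-out: enzyme deacetylates 50 μM RHKK(Ac)AMC for 1 h at 30° C in pH 8.0 Tris buffer with BSA and 1% DMSO, then developer cleavage gives signal at Ex 360/Em 460. Enzyme: 0.3 ng/ul recombinant full-length human HDAC6, GST-tagged, Sf9-expressed.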

[6] = target: T6, Human HDAC1 (Homo sapiens, UniProt Q13547); assay: HDAC1 biochemical assay, AMC-labeled peptide substrate; conditions: read-out: HDAC Isoform IC50 (nM) 1
T6 construct: full length with C-terminal His-tag and C-terminal FLAG-tag; His (C); FLAG (C); host or cells: baculovirus expression system
Outline: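 Baculovirus-expressed full-length human HDAC1 with His and FLAG tags, 0.3 ng/ul, incubated 1 h at 30° C with compound and 50 μM RHKK(Ac)AMC in Tris pH 8.0 buffer with BSA and 1% DMSO. Developer then releases AMC from deacetylated substrate; fluorescence read at 360/460 nm.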

T6 sequence (Q13547 whole entry, canonical isoform): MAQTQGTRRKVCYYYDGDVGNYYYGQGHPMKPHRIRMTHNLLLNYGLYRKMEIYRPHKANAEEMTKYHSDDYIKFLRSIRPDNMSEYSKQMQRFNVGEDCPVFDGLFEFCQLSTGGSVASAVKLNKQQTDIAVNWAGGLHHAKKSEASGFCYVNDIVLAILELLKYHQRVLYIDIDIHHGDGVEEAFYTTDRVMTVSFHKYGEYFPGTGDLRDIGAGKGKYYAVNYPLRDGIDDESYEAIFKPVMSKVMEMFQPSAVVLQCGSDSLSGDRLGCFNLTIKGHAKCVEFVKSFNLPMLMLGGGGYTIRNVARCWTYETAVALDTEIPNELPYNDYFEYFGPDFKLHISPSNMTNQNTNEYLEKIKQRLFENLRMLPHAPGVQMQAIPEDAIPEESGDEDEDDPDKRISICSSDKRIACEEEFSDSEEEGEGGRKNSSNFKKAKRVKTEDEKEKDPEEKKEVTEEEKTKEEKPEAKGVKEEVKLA
T2 sequence (Q9UKV0 604-1066 isoform Q9UKV0-5): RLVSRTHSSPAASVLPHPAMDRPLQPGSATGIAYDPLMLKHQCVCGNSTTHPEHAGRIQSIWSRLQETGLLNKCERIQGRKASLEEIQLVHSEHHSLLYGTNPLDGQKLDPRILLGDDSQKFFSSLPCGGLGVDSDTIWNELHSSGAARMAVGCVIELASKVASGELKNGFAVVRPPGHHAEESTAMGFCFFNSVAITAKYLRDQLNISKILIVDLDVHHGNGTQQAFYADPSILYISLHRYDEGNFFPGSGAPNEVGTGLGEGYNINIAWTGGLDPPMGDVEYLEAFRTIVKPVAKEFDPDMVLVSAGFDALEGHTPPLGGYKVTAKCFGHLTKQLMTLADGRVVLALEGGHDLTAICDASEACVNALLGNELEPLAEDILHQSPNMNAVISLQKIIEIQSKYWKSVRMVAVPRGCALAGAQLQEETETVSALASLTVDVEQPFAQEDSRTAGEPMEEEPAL
T4 sequence (P56524 627-1084 limits assumed): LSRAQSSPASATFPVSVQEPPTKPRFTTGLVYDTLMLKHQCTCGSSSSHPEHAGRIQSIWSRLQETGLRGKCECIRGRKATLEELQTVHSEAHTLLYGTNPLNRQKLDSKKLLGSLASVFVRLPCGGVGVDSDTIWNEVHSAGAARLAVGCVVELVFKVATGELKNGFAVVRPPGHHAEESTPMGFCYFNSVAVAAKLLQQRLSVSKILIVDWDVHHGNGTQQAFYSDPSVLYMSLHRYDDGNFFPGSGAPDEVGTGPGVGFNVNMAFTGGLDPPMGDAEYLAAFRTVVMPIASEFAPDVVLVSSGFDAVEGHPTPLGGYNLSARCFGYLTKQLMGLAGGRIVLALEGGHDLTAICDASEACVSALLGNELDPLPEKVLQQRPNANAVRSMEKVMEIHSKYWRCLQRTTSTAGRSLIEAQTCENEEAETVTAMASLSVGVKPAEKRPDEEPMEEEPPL
T1 sequence (Q9UQL6 656-1122 limits assumed): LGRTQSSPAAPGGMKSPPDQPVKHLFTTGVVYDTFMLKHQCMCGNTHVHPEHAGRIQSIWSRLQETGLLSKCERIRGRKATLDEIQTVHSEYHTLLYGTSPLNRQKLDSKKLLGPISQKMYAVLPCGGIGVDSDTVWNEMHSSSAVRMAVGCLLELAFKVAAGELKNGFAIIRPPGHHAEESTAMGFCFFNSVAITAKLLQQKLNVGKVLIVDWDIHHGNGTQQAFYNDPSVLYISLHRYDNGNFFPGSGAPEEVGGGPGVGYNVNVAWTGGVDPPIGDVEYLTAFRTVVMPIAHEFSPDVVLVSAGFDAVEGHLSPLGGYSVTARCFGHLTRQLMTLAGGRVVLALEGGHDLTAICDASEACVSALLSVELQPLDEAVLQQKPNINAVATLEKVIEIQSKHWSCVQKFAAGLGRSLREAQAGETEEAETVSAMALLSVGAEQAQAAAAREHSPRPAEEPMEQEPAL

| IC50 [1] [nM] | IC50 [2] [nM] | IC50 [3] [nM] | IC50 [4] [nM] | IC50 [5] [nM] | IC50 [6] [nM] | Compound |
| --- | --- | --- | --- | --- | --- | --- |
| ≤ 10000 | ≤ 10000 | ≤ 10000 | ≤ 10000 | ≤ 10000 | > 10000 | FC(F)(F)c1nc(-c2ccc(CN(c3ccc(C4CC4)cn3)c3cnccn3)s2)no1 [Example AA, N-(5-Cyclopropylpyridin-2-yl)-N-({5-[5-(trifluoromethyl)-1,2,4-oxadiazol-3-yl]thiophen-2-yl}methyl)pyrazin-2-amine] |
| ≤ 10000 | ≤ 10000 | ≤ 10000 | ≤ 10000 | ≤ 10000 | > 10000 | FC(F)(F)c1nc(-c2ccc(CN(c3cnccn3)c3nccc(N4CCCC4)n3)s2)no1 [Example AV, N-(Pyrazin-2-yl)-4-(pyrrolidin-1-yl)-N-({5-[5-(trifluoromethyl)-1,2,4-oxadiazol-3-yl]thiophen-2-yl}methyl)pyrimidin-2-amine] |
| ≤ 10000 | ≤ 10000 | ≤ 10000 | ≤ 10000 | ≤ 1000 | > 10000 | O=C(O)c1ccc(N(Cc2ccc(-c3noc(C(F)(F)F)n3)s2)c2cnccn2)nn1 [Example DP, 6-[(Pyrazin-2-yl)({5-[5-(trifluoromethyl)-1,2,4-oxadiazol-3-yl]thiophen-2-yl}methyl)amino]pyridazine-3-carboxylic acid] |
| ≤ 10000 | > 10000 | ≤ 10000 | ≤ 10000 | ≤ 10000 | > 10000 | FC(F)(F)c1cnnc(N(Cc2ccc(-c3noc(C(F)(F)F)n3)s2)c2ccc(C(F)(F)F)nn2)c1 [Example EV, 6-(Trifluoromethyl)-N-({5-[5-(trifluoromethyl)-1,2,4-oxadiazol-3-yl]thiophen-2-yl}methyl)-N-[5-(trifluoromethyl)pyridazin-3-yl]pyridazin-3-amine] |
| ≤ 1000 | ≤ 10000 | ≤ 1000 | ≤ 1000 | ≤ 1000 | > 10000 | FC(F)(F)c1nc(-c2ccc(CN(c3cnccn3)c3nccnn3)s2)no1 [Example DE, N-(Pyrazin-2-yl)-N-({5-[5-(trifluoromethyl)-1,2,4-oxadiazol-3-yl]thiophen-2-yl}methyl)-1,2,4-triazin-3-amine] |
| ≤ 500 | ≤ 1000 | ≤ 1000 | ≤ 500 | ≤ 10000 | > 10000 | Cc1cnc(C)c(N(Cc2ccc(-c3noc(C(F)(F)F)n3)s2)c2cnccn2)n1 [Example BU, 3,6-Dimethyl-N-(pyrazin-2-yl)-N-({5-[5-(trifluoromethyl)-1,2,4-oxadiazol-3-yl]thiophen-2-yl}methyl)pyrazin-2-amine] |
| ≤ 1000 | ≤ 10000 | ≤ 1000 | ≤ 500 | ≤ 10000 | > 10000 | FC(F)(F)c1nc(-c2ccc(CN(c3cnc(C4CC4)nc3)c3cnccn3)s2)no1 [Example CU, 2-Cyclopropyl-N-(pyrazin-2-yl)-N-({5-[5-(trifluoromethyl)-1,2,4-oxadiazol-3-yl]thiophen-2-yl}methyl)pyrimidin-5-amine] |
| ≤ 10000 | ≤ 10000 | ≤ 10000 | ≤ 10000 | ≤ 10000 | > 10000 | CN(C)C(=O)c1cncc(N(Cc2ccc(-c3noc(C(F)(F)F)n3)s2)c2cnccn2)n1 [Example BS, N,N-Dimethyl-6-[(pyrazin-2-yl)({5-[5-(trifluoromethyl)-1,2,4-oxadiazol-3-yl]thiophen-2-yl}methyl)amino]pyrazine-2-carboxamide] |
| ≤ 10000 | ≤ 10000 | ≤ 10000 | ≤ 10000 | ≤ 10000 | > 10000 | FC(F)(F)c1nc(-c2ccc(CN(c3cnccn3)c3cc(N4CCOCC4)ncn3)s2)no1 [Example CL, 6-(Morpholin-4-yl)-N-(pyrazin-2-yl)-N-({5-[5-(trifluoromethyl)-1,2,4-oxadiazol-3-yl]thiophen-2-yl}methyl)pyrimidin-4-amine] |
| ≤ 1000 | ≤ 10000 | ≤ 10000 | ≤ 10000 | ≤ 1000 | > 10000 | COCc1nccnc1N(Cc1ccc(-c2noc(C(F)(F)F)n2)s1)c1cnccn1 [Example BG, 3-(Methoxymethyl)-N-(pyrazin-2-yl)-N-({5-[5-(trifluoromethyl)-1,2,4-oxadiazol-3-yl]thiophen-2-yl}methyl)pyrazin-2-amine] |
| ≤ 1000 | ≤ 10000 | ≤ 1000 | ≤ 1000 | ≤ 500 | ≤ 10000 | Cn1cc(-c2ccc(N(Cc3ccc(-c4noc(C(F)(F)F)n4)s3)c3cnccn3)nn2)cn1 [Example DO, 6-(1-Methyl-1H-pyrazol-4-yl)-N-(pyrazin-2-yl)-N-({5-[5-(trifluoromethyl)-1,2,4-oxadiazol-3-yl]thiophen-2-yl}methyl)pyridazin-3-amine] |
| ≤ 500 | ≤ 10000 | ≤ 500 | ≤ 500 | ≤ 10000 | > 10000 | CS(=O)(=O)c1ncc(N(Cc2ccc(-c3noc(C(F)(F)F)n3)s2)c2cnccn2)cn1 [Example CW, 2-Methanesulfonyl-N-(pyrazin-2-yl)-N-({5-[5-(trifluoromethyl)-1,2,4-oxadiazol-3-yl]thiophen-2-yl}methyl)pyrimidin-5-amine] |
